Measurements published in publication PMC12030000 (Pharmaceuticals, 2025).

Tested on: ALS patient-derived iMNs (C9orf72 pathology)
Assay: iPSC-derived motor neuron (iMN) survival assay with neurotrophic factor withdrawal
Type: cell-based, human
Conditions: for Median survival time of treated ALS iMNs: ALS patient-derived iMNs, 14-day period; for Surviving iMNs (cell count): 300 tracked ALS iMNs on day 0
Description: In this study, iPSC-derived iMNs were generated from PALS (C9orf72 pathology) and from healthy donors' PBMCs. Neuronal survival rate was compared between PrimeC's components, their combination, and the relevant DMSO vehicle reference as described in Figure 2A-C. […] form between days 13 and 16 after transduction of iMN factors. The iMN survival assay was initiated on day 17. Starting at Day 17, longitudinal tracking of iMNs was performed using Molecular Devices ImageExpress once every other day for 16 days. Tracking of neuronal survival was performed using ImageJ version 1.53t. Neurons were scored as dead when their soma was no longer detectable by RFP fluorescence. iMN survival experiments included neurotrophic factor withdrawal in order to exacerbate the survival difference between control and PALS' iMNs. Neurotrophic factor withdrawal of FGF-2, BDNF, GDNF, and CNTF from the culture medium was performed on day 17. For treatment with drugs, cultures were treated with DMSO or a drug after neurotrophic factor withdrawal (starting at day 17). Treatment with fresh media containing vehicle or drugs occurred every 3 days for 16 days. […] Control cell lines of non-neurological subjects (i.e., neurologically healthy controls) were used in the comparisons. […] A hazard ratio was calculated for each of the comparisons as the likelihood of neuron death when treated with the indicated compound divided by the likelihood of neuron death when treated with another indicated compound. The lower the ratio, the […] it is for a cell to die when treated with the second compound compared to being treated with the first compound in each comparison above, and vice versa. Analysis utilized GraphPad Prism version 10.0.2 GraphPad. […] Kaplan-Meier plots were generated using iMNs obtained from each treatment condition in replicates of three. Confirmation of iMN survival times was analyzed by manual longitudinal tracking.

[1] = day 16, day 16 excluded from survival analyses

Row | SMILES | Median survival time of treated ALS iMNs [days] | Surviving iMNs (cell count) (day 2) | Surviving iMNs (cell count) (day 4) | Surviving iMNs (cell count) (day 6) | Surviving iMNs (cell count) (day 8) | Surviving iMNs (cell count) (day 10) | Surviving iMNs (cell count) (day 12) | Surviving iMNs (cell count) (day 14) | Surviving iMNs (cell count) [1]
1 | Cc1ccc(-c2cc(C(F)(F)F)nn2-c2ccc(S(N)(=O)=O)cc2)cc1 [Celecoxib, celecoxib] | 8 | 300 | 272 | 227 | 190 | 139 | 104 | 79 | 55
2 | O=C(O)c1cn(C2CC2)c2cc(N3CCNCC3)c(F)cc2c1=O [Ciprofloxacin, ciprofloxacin] | 8 | 300 | 262 | 238 | 210 | 177 | 146 | 118 | 74
